Test results taken from PMC5107951 (Scientific Reports, 2016).
Where a SMILES comes first, the peptide text is derived from it. Bridges are numbered along the chain shown (N, C = ends).

Columns and labels:
α7 nAChR [1] = biological target: α7 nAChR (Rattus norvegicus, UniProt Q05941); experiment: cell-based
α7 nAChR [2] = biological target: α7 nAChR (Homo sapiens, UniProt P36544); experiment: cell-based; format: binding
Sequence of α7 nAChR (Homo sapiens, UniProt P36544) (P36544 23-502 limits assumed): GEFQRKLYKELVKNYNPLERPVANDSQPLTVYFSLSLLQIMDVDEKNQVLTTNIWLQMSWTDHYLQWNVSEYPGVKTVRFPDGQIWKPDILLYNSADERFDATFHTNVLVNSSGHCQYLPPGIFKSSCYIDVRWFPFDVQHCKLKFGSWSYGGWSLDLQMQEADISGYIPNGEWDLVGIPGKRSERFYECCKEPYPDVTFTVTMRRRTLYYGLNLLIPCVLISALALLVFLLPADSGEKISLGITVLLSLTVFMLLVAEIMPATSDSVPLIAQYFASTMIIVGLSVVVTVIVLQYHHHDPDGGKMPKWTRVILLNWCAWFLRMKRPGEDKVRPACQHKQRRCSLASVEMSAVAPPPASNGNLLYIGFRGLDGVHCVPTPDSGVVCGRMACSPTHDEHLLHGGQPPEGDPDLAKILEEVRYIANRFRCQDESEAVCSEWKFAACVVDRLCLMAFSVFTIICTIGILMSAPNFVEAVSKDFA

Sequence of α7 nAChR (Rattus norvegicus, UniProt Q05941) (Q05941 23-502 limits assumed): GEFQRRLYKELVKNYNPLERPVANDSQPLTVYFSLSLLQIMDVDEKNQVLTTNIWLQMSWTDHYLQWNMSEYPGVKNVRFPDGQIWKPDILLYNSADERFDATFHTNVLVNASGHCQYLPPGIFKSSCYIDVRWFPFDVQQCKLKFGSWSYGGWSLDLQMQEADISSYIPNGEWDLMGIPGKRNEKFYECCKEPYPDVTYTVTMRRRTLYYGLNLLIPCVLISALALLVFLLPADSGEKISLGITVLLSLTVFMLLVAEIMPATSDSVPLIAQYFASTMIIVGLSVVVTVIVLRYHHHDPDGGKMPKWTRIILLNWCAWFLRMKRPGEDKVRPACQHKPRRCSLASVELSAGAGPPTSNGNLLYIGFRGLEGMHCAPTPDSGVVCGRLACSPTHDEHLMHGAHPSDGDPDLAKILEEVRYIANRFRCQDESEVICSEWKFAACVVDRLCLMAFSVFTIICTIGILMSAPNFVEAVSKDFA

Structure (SMILES)	IC50 (α7 nAChR [1]) [nM]	displacement of [125I]-PnIA[R9, L10] by non-radioactive peptide (α7 nAChR [2]) [%]	IC50 (α7 nAChR [2]) [nM]
CC(C)C[C@@H]1NC(=O)[C@H](CCCNC(=N)N)NC(=O)[C@@H]2CSSC[C@H](NC(=O)CN)C(=O)N[C@@H](CSSC[C@@H](C(N)=O)NC(=O)[C@H](Cc3ccc(O)cc3)NC(=O)[C@H](CC(=O)O)NC(=O)[C@@H]3CCCN3C(=O)[C@H](CC(N)=O)NC(=O)[C@H](CC(N)=O)NC1=O)C(=O)N[C@@H](CO)C(=O)N[C@@H](CC(C)C)C(=O)N1CCC[C@H]1C(=O)N1CCC[C@H]1C(=O)N2 [PnIA[R9, L10]] (H-GCCSLPPCRLNNPDYC-NH2; disulfide 2-8, 3-16)	27 ± 11	100	–
CC(C)C[C@@H]1NC(=O)[C@H](CO)NC(=O)[C@@H]2CSSC[C@@H](C(N)=O)NC(=O)[C@H](Cc3ccc(O)cc3)NC(=O)[C@H](CC(=O)O)NC(=O)[C@@H]3CCCN3C(=O)[C@H](CC(N)=O)NC(=O)[C@H](CC(N)=O)NC(=O)[C@H](C)NC(=O)[C@H](CCCNC(=N)N)NC(=O)[C@H](CSSC[C@H](NC(=O)CN)C(=O)N2)NC(=O)[C@@H]2CCCN2C(=O)[C@@H]2CCCN2C1=O [PnIA[R9]] (H-GCCSLPPCRANNPDYC-NH2; disulfide 2-8, 3-16)	27 ± 10	–	1490
CC(C)C[C@@H]1NC(=O)[C@H](CCCNC(=N)N)NC(=O)[C@@H]2CSSC[C@H](NC(=O)CN)C(=O)N[C@@H](CSSC[C@@H](C(N)=O)NC(=O)[C@H](Cc3ccc(O)cc3)NC(=O)[C@H](CCCNC(=N)N)NC(=O)[C@@H]3CCCN3C(=O)[C@H](CC(N)=O)NC(=O)[C@H](CC(N)=O)NC1=O)C(=O)N[C@@H](CO)C(=O)N[C@@H](CCCNC(=N)N)C(=O)N1CCC[C@H]1C(=O)N1CCC[C@H]1C(=O)N2 [PnIA[R5, R9, L10, R14]] (H-GCCSRPPCRLNNPRYC-NH2; disulfide 2-8, 3-16)	17 ± 2	–	–
